Results on one substance are retold here after US20080249142A1, “HYDRO[…] OF ME[…]” (Targacept, Inc., priority 2004, published 2008).

A short description of the series: physical and chemical properties of the hydroxybenzoate salts (stated, no method described). The series is classed as physicochemical. The conditions noted are these: solid salt, free-flowing crystalline powder.

“(2S)-(4E)-N-methyl-5-(5-isopropoxy-3-pyridinyl)-4-penten-2-amine p-hydroxybenzoate [Example 1]”: the “physical and chemical stability of the salt” value was “physically and chemically stable”.
